The values that follow are results of earlier work, collected in patent US9005898B2, “Method for controlling hair growth, method for selecting or evaluating hair growth control agent, and hair growth suppression agent” (Kao Corporation, priority 2010, dated 2015).

This series relates to human hair follicle. Conditions: in a dose-dependent manner; Patent Document 7.

On to `O=CN1CC/C(=C\c2ccc3c(c2)OCO3)C1=O` [KNK437], for which the “growth of the human hair follicle” value is “reduced”.
